Results on three compounds are retold here after patent US9085606B2, “Beta amino acid derivatives as integrin antagonists” (Saint Louis University, priority 2012, dated 2015).

Assay [1] deals with T1, Recombinant human integrin αvβ1 (Homo sapiens, UniProt P05556+P06756).
T1 construct: purchased R&D Systems 6579-AV
Nature of the assay: Solid Phase Receptor Assay for αvβ1 Function. To be noted: binding to fibronectin-coated plate; read-out: αvβ1 SPRA IC50. As for the experimental part: Solid Phase Receptor Assay for αvβ1 Function.
Wells were washed 3 times with 150 μl TBS+ and 150 μL of blocking buffer (TBS+ with 1% bovine serum albumin, Sigma A7906) were added. The plate was incubated for 1 hr at 37° C. and then washed 3× with TBS+ buffer. […] Compounds were diluted 1:100 into the integrin solution and 50 μL added to empty wells of the washed fibronectin-coated plate according to a standard template with each sample repeated in triplicate. After incubation for two hours at room temperature, the plate was washed 3× with 150 μL of TBS+ buffer. To each well, 50 μL of biotinylated anti-αv antibody (R&D Systems, BAF1219) at 1 μg/mL in TBS+/0.1% BSA were added and the plate covered and incubated for 1 hr at room temperature. After washing the plate 3× with 150 μL of TBS+ buffer, 50 μL of streptavidin-conjugated horseradish peroxidase (R&D Systems, DY998) diluted in TBS+ blocking buffer were added to the wells and the plate incubated for 20 min at room temperature. The plate was washed 3× with TBS+ buffer followed by 50 μL of TMB substrate (Sigma, T4444) added to each well and the plate incubated for 20 min at room temperature. The reaction was optionally stopped with 25 μL of Stop Solution (Sigma S5689). Plates were read by colorimetric detection at 650 nm wavelength using a Tecan Safire II plate reader.

In assay [2] the target is T2, Recombinant human integrin αvβ3 (Homo sapiens, UniProt P05106+P06756).
T2 construct: purchased R&D Systems 3050-AV
Nature of the assay: Solid Phase Receptor Assay for αvβ3 Function. The settings on record: binding to vitronectin-coated plate; read-out: αvβ3 SPRA IC50. As for the experimental part: Solid Phase Receptor Assay for αvβ3 Function.
Wells were washed 3 times with 150 μL TBS+ and 150 μL of blocking buffer (TBS+ with 1% bovine serum albumin, Sigma A7906) were added. The plate was incubated for 1 hr at 37° C. and then washed 3× with TBS+ buffer. […] Compounds were diluted 1:100 into the integrin solution and then 50 μL added to empty wells of the washed vitronectin-coated plate according to a standard template with each sample repeated in triplicate. After incubation for two hours at room temperature, the plate was washed 3× with 150 μL of TBS+ buffer. To each well, 50 μL of biotinylated anti-αv antibody (R&D Systems, BAF1219) at 0.5 μg/mL in TBS+/0.1% BSA were added and the plate covered and incubated for 1 hr at room temperature. After washing the plate 3× with 150 μL of TBS+ buffer, 50 μL of streptavidin-conjugated horseradish peroxidase (R&D Systems, DY998) diluted in TBS+ blocking buffer were added to the wells and the plate incubated for 20 min at room temperature. The plate was washed 3× with TBS+ buffer followed by 50 μL of TMB substrate (Sigma, T4444) added to each well and the plate was incubated for 20 min at room temperature. The reaction was optionally stopped with 25 μL of Stop Solution (Sigma, S5689). Plates were read by colorimetric detection at 650 nm wavelength using a Tecan S afire II plate reader.

Each structure is given as a SMILES string.

T2 sequence (P06756 31-992 limits assumed): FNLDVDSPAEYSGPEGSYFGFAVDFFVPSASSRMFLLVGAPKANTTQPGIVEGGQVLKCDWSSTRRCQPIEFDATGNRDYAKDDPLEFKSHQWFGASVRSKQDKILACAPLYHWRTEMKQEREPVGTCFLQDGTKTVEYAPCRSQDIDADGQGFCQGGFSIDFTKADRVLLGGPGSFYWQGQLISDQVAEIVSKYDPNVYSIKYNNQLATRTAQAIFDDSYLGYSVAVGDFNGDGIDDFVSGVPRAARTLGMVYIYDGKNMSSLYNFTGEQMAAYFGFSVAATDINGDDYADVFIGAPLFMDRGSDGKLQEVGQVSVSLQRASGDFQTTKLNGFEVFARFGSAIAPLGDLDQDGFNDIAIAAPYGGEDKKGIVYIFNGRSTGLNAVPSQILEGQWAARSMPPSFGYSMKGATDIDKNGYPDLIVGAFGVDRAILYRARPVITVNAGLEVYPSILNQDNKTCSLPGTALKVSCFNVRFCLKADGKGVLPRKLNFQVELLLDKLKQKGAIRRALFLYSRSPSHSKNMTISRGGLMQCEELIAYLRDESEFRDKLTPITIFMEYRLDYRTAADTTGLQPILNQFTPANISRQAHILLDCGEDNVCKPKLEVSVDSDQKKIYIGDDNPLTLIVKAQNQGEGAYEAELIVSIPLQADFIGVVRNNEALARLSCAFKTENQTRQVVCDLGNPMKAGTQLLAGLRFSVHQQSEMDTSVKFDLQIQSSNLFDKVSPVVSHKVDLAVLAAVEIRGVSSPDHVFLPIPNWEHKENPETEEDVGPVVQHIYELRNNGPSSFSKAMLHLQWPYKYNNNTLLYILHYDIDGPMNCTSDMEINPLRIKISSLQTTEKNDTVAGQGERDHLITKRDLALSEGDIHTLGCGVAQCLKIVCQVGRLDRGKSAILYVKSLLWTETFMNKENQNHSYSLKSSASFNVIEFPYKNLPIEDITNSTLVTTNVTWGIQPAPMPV
T2 sequence (P05106 27-718 limits assumed): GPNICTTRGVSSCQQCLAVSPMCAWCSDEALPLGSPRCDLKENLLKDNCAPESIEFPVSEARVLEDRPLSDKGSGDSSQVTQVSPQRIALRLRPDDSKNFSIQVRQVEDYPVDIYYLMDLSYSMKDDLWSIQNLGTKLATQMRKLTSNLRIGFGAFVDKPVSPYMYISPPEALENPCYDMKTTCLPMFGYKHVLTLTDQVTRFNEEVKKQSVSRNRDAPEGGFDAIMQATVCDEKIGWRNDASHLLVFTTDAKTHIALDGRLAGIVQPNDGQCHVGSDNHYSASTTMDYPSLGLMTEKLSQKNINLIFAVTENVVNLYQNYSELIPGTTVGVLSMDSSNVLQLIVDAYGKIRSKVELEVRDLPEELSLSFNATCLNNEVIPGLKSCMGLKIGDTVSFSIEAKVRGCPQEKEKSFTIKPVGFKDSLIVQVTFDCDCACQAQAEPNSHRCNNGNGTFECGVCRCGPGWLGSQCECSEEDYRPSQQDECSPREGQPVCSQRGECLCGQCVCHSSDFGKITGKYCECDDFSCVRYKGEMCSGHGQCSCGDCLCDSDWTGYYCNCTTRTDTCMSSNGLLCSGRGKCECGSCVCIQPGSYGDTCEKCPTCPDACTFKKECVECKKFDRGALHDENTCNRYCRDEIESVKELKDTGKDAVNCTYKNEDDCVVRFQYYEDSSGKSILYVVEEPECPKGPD
T1 sequence (P06756 31-992 limits assumed): as the sequence (P06756 31-992 limits assumed) above
T1 sequence (P05556 21-728 limits assumed): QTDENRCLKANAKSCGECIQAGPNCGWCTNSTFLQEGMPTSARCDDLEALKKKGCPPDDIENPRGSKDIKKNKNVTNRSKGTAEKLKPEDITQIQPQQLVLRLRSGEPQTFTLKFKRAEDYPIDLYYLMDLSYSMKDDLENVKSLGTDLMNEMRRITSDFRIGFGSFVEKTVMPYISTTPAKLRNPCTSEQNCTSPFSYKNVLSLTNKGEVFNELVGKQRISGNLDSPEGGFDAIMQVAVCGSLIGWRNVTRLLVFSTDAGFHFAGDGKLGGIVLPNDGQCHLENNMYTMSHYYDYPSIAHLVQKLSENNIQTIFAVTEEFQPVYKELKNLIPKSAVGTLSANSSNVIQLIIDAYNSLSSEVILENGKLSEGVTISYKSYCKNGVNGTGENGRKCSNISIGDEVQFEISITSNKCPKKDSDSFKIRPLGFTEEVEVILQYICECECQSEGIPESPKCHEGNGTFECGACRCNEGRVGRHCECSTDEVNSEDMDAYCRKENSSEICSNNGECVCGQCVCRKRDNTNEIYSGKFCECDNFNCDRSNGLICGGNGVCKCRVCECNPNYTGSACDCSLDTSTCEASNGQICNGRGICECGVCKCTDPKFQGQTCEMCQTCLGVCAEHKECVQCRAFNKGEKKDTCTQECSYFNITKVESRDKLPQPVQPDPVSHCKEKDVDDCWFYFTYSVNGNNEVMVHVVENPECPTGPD

A word on the IC50: it is the concentration at which inhibition is half-maximal. For the compound `CC(C)(O)c1cc([C@H](CC(=O)O)NC(=O)CNC(=O)c2cc(O)cc(NC3=NCC(O)CN3)c2)cc(C(F)(F)F)c1` (stereo partly drawn) [Example 13, (3S)-3-(2-(3-hydroxy-5-((5-hydroxy-1,4,5,6-tetrahydropyrimidin-2-yl)amino)benzamido)acetamido)-3-(3-(2-hydroxypropan-2-yl)-5-(trifluoromethyl)phenyl)propanoic acid], the IC50 in assay [1] amounted to 4 nM; in assay [2], 1.8 nM.
As to `O=C(O)C[C@H](NC(=O)CNC(=O)c1cc(O)cc(NC2=NCC(O)CN2)c1)c1cc(Cl)cc(C2(CF)CCOCC2)c1` (stereo partly drawn) [Example 20, (3S)-3-(3-chloro-5-(4-(fluoromethyl)tetrahydro-2H-pyran-4-yl)phenyl)-3-(2-(3-hydroxy-5-((5-hydroxy-1,4,5,6-tetrahydropyrimidin-2-yl)amino)benzamido)acetamido)propanoic acid], the 50% inhibitory concentration (IC50) in assay [1] came out at 4.9 nM; in assay [2], 3.7 nM.
The like results for `CC(C)(C)c1cc(Br)c(O)c([C@H](CC(=O)O)NC(=O)CNC(=O)c2cc(O)cc(NC3=NCC(O)CN3)c2)c1` (stereo partly drawn) [Example 1, (3S)-3-(3-bromo-5-(tert-butyl)-2-hydroxyphenyl)-3-(2-(3-hydroxy-5-((5-hydroxy-1,4,5,6-tetrahydropyrimidin-2-yl)amino)benzamido)acetamido)propanoic acid] were, in that order, 2.1 nM and 5.1 nM.
